Target: T1, EP2 receptor (Homo sapiens, UniProt P43116)
T1 construct: expressed in transfected cells; host or cells: HEK-T
Assay: cAMP response to PGE2 in HEK-T cells (EP2 co-transfection)
Assay type: cell-based
Settings: doses as high 10 μM
From the text: An assay was established for measuring cAMP in transiently transfected cells that takes advantage of the fact that most cells that are transfected with one gene, can be simultaneously transfected with other genes. Thus, the NPFF1 and NPFF2 receptors were transfected along with a Gs-coupled receptor (EP2) at a ratio of 5:1.

T1 sequence (P43116 whole entry): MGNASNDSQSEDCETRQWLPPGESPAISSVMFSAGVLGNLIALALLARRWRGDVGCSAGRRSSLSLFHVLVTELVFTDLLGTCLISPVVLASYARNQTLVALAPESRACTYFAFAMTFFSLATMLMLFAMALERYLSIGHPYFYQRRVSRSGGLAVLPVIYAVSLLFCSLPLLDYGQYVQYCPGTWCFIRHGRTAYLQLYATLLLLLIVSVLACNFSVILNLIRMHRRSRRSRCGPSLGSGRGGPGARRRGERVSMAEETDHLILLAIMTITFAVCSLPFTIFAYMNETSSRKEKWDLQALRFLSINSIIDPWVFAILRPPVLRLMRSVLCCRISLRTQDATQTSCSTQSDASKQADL

CCCCC[C@H](O)/C=C/[C@H]1[C@H](O)CC(=O)[C@@H]1C/C=C\CCCC(=O)O [PGE2]
response in un-transfected HEK-T cells: no response

From US20050136444A1 (priority 2003, published 2005)
